Assays:
Type in all cases: cell-based
BCR-ABL fusion protein [1] = molecular target: T1, BCR-ABL fusion protein (Homo sapiens, UniProt P00519+P11274+Q96SW2, E27K); test: Immunoblotting, degradation of BCR-ABL protein in K562 cells
T1 construct: By using BCR-ABL and CRBN positive K562 cell lines; endogenous in cells; host or cells: K562
Experimental: (§1) Initially, researchers synthesized a 2C compound (FIG. 2A), which is a small molecule with the shortest joining chain (n=1). By using BCR-ABL and CRBN positive K562 cell lines, degradation of ABL and BCR-ABL proteins in the cells under the action of the compound was tested by immunoblotting. […] Then, the researchers tried to extend the joining chain (increasing the value of n).
(§2) In order to test the degradation effect of the compound 4C on c-ABL and BCR-ABL proteins in K562 cells, the researchers performed an immunoblotting experiment. […] In order to exclude the possibility that the compound 4C affected the ABL gene to generate false positive expression, the researchers used RT-qPCR in K562 cells to study the expression of the ABL gene.
The operation method of the immunoblotting experiment is as follows: […]
(§3) The medium was aspirated from the culture; the cells were washed with 1*PBS; and the cells were aspirated.
(§4) A weak RIPA lysate (100 μL) was added to lyse the cells for 40 min.
(§5) The sample was centrifuged at 13000 rpm, 4° C. for 15 min; 80 μl of supernatant was taken and added to 20 μl of loading buffer; the reaction solution was heated at 100° C. for 8 minutes; and the sample was placed on ice and cooled.
(§6) […] of sample was loaded on 10% SDS-PAGE gel. The sample was transferred to a PVDF membrane by a wet process.
(§7) A membrane was placed in 25 ml of blocking buffer and blocked at room temperature for 1 hour.
(§8) The membrane and the primary antibody (according to the appropriate dilution and diluent recommended in the product description) were placed in 10 ml of primary antibody dilution buffer, and incubated overnight at 4° C. and gently shaken from time to time.
(§9) Anti-rabbit IgG, HRP-linked Antibody (#7074, in a ratio of 1:2000) and anti-biotin, HRP-linked Antibody (#7075, in a ratio of 1:1000-1:3000) are diluted with 10 ml of blocking buffer to detect biotinylated protein standards. The membrane was incubated with the diluent, and gently shaken and incubated at room temperature for 1 hour.
(§10) A developer solution and the membrane were incubated together for 1 minute, the excess solution was discarded (the membrane remained moist) and the membrane was exposed.
(§11) Next, we tested the difference in the activity of different configurations of compound 4C in degradation of ABL and BCR-ABL proteins. […] The operation method of the immunoblotting experiment is the same as above.

ABL = molecular target: T2, ABL (Homo sapiens, UniProt P00519); test: Immunoblotting, degradation of ABL protein in K562 cells
T2 construct: degradation effect of the compound 4C on c-ABL and BCR-ABL proteins in K562 cells; endogenous in cells; host or cells: K562
Experimental: as §1, §2
The operation method of the immunoblotting experiment is as follows:
K562 cells after administration were incubated for 24 hours.
as §3, §4, §5, §6, §7, §8, §9, §10, §11

BCR-ABL fusion protein [2] = molecular target: T1, BCR-ABL fusion protein; test: Simulated light control, BCR-ABL level in K562 cells (immunoblotting); conditions: 100 nM for 24 hours, then fresh medium
Experimental: In order to simulate a light control process, the researchers treated K562 cells with the compound 4C-trans for 24 hours. Then the cells were transferred to fresh media and divided into 2 groups: one group was placed in a dark room (VIS group), and the other group was irradiated with UV after 0, 4, 8, 12, 16, and 24 hours of incubation to simulate the photo-isomerization process (UV group).
The specific operation method for simulating light control is as follows:
The compound 4C-trans at a final concentration of 100 nM was added to K562 cells, and the cells were incubated at 37° C. for 24 hours. The medium was washed off, and the cells were washed 2 times with 1*PBS. Then the cells were transferred to fresh 1640 medium (10% FBS, 1*glutamine) for culture, and divided into two groups: one group was placed in a dark room, and the other group was irradiated with UV-C light for 30 min every 4 hours. The cells were collected after transfer and incubation for 0, 4, 8, 16, and 24 hours respectively, and post-treatment of the cells was the same as that of immunoblotting.

K562 cells = test: Anti-K562 cell proliferation activity test (CCK-8); conditions: Homo sapiens, 48 hours, read-out: median inhibitory concentration (IC50)
Experimental: The operation method of the anti-K562 cell proliferation activity test is as follows:
100 μL of K562 cell suspension and 10 μL of test compounds of different concentrations were prepared in a 96-well plate. The culture plate was placed in an incubator for incubation for 48 hours (37° C., 5% CO2). 10 μL of CCK-8 solution was added to each well. The culture plate was placed in an incubator for incubation for 1-4 hours. The absorbency was measured at 450 nm with a microplate reader. […] (%)=[A (with drug)−A (blank)]/[A (with 0 drug)−A (blank)]×100, wherein:
A (with drug): the absorbency of the wells containing cells, CCK-8 solution and drug solution
A (blank): the absorbency of wells containing medium and CCK-8 solution but no cells
A (with 0 drug): the absorbency of the wells containing cells and CCK-8 solution but no drug solution

MCF-7 breast cancer = test: Cell viability test (CellTiter-Glo), MCF-7; conditions: non-BCR-ABL dependent tumor cell line
Experimental: The operation method of the K562 cell viability test is as follows:
50 μL of K562, MCF-7, HCT116 and A549 cell suspensions were added to a 96-well plate and incubated for 12 hours. 10 μL of compound was added to the well and incubated for 48 hours. Operation was performed according to a CellTiter-Glo® luminescent cell viability assay kit (Promega). Nonlinear regression analysis data in GraphPad Prism 6 was used.

T2 sequence (P00519 whole entry): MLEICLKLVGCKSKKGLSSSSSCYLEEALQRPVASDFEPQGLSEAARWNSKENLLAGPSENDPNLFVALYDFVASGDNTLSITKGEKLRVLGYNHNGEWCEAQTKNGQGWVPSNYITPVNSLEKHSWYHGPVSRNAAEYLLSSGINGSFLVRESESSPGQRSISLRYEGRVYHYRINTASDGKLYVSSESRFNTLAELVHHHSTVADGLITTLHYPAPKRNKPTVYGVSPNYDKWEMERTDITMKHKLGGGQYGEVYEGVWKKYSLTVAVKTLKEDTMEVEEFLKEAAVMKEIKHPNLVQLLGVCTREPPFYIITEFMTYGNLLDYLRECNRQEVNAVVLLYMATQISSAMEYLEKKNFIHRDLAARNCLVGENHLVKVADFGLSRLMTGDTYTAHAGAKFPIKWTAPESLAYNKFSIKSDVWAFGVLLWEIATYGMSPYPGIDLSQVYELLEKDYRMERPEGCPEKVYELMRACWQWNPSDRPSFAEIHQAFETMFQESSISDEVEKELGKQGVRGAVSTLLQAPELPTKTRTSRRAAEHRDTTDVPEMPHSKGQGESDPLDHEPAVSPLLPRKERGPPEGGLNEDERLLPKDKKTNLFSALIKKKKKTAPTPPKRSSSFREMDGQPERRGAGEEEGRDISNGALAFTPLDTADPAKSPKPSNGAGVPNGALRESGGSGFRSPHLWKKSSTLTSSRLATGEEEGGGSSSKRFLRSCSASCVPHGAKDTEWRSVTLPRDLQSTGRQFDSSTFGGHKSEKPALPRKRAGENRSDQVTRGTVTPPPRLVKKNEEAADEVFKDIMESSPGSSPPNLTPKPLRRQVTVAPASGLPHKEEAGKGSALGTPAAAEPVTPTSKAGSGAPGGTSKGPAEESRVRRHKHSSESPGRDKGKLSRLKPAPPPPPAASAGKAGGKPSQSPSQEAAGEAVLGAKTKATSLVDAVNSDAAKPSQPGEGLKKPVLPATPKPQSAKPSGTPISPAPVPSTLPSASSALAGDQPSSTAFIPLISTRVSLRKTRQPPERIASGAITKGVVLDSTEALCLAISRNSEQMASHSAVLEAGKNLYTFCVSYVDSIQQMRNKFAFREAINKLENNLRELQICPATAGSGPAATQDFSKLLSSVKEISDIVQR

Cc1nc(Nc2ncc(C(=O)Nc3c(C)cccc3Cl)s2)cc(N2CCN(CCCCOc3ccc(/N=N/c4ccc(C(=O)Nc5cccc6c5CN(C5CCC(=O)NC5=O)C6=O)cc4)cc3)CC2)n1 (centres unmarked) [Compound 4C, (E)-N-(2-chloro-6-methylphenyl)-2-((6-(4-(4-(4-((4-((2-(2,6-dioxopiperidin-3-yl)-1-oxoisoindolin-4-yl)carbamoyl)phenyl)diazenyl)phenoxy)butyl)piperazin-1-yl)-2-methylpyrimidin-4-yl)amino)thiazole-5-carboxamide]
inhibition of expression of BCR-ABL and/or CRBN protein (BCR-ABL fusion protein [1]; BCR-ABL and/or CRBN positive leukemia K562 cells, to varying degrees): can inhibit the expression | activity in degrading the BCR-ABL fusion protein, compared among the PROTAC molecules (BCR-ABL fusion protein [1]; K562 cells): best activity | degradation of BCR-ABL fusion protein, dose-effect (BCR-ABL fusion protein [1]; K562 cells, 25 nM, 24 hours of incubation): slightly degrade | time at which BCR-ABL reached the maximum degradation (BCR-ABL fusion protein [1]; K562 cells, 250 nM): 32 h | BCR-ABL level, time-effect (BCR-ABL fusion protein [1]; K562 cells, 250 nM, after 4 hours): slight decrease | BCR-ABL level, time-effect (BCR-ABL fusion protein [1]; K562 cells, 250 nM, after 10 hours): significantly degraded | BCR-ABL level, time-effect (BCR-ABL fusion protein [1]; K562 cells, 250 nM, after 10 hours, listed as 4C-trans): significantly reduced | BCR-ABL fusion protein degraded, time-effect (BCR-ABL fusion protein [1]; K562 cells, 250 nM, after 32 hours): more than 90% | BCR-ABL degraded, dose-effect (BCR-ABL fusion protein [1]; K562 cells, 500 nM, 24 hours of incubation): more than 80% | time at which ABL reached the maximum degradation (ABL; 250 nM): 32 h | ABL level, time-effect (ABL; 250 nM, 4 hours of incubation): significantly reduced | c-ABL level, time-effect (ABL; 250 nM, after 10 hours): significantly degraded | ABL protein degraded, dose-effect (ABL; 500 nM, 24 hours of incubation): almost all | BCR-ABL level after washout (BCR-ABL fusion protein [2]; UV-C 30 min every 4 hours (UV group)): increased over time | BCR-ABL fusion protein level after washout (BCR-ABL fusion protein [2]; dark room (VIS group), 0-24 hours): remained at a low level | IC50 (K562 cells): 0.068 µM | effect on cell viability (MCF-7 breast cancer): hardly affects

From patent US11504385B2, “Proteolysis targeting chimeric molecule, preparation method, and application” (CHINA PHARMACEUTICAL UNIVERSITY, priority 2019, dated 2022)
